Earlier results in patent US6011041A, “Use of anhydrovinblastine” (priority 1996, dated 2000).

What was measured:
human rhabdosarcomas = conditions: in vivo; cited from earlier work
tumour = conditions: alkaloids extracted from Vinca rosea; cited from earlier work
[1] = humans; cited from earlier work

Row | Structure (SMILES) | activity in human rhabdosarcomas transplanted in nude mice (human rhabdosarcomas) | antitumour activity (tumour) | dose limiting toxicity [1]
1 | CC[C@]1(O)C[C@@H]2CN(CCc3c([nH]c4ccccc34)[C@@](C(=O)OC)(c3cc4c(cc3OC)N(C)[C@H]3[C@@](O)(C(=O)OC)[C@H](OC(C)=O)[C@]5(CC)C=CCN6CC[C@]43[C@@H]65)C2)C1 [vinblastine] | not active in this system | significant antitumour activity | anemia and leucopenia
2 | CC[C@]12CN3CCc4c([nH]c5ccccc45)[C@@](C(=O)OC)(c4cc5c(cc4OC)N(C)[C@H]4[C@@](O)(C(=O)OC)[C@H](OC(C)=O)[C@]6(CC)C=CCN7CC[C@]54[C@@H]76)C[C@@H](C3)[C@H]1O2 [vinleurosine] | – | significant antitumour activity | –
